Strand notation (5' to 3'): a small letter for the sugar, then the base; units joined by * are phosphorothioate-linked, units joined directly phosphodiester-linked; [ ] holds rarer units or linkages, { } end groups; capitals alone tell only the bases. e = 2'-O-(2-methoxyethyl) (MOE); [5mC] = 5-methylcytosine; d = 2'-deoxy (DNA)
How the values were obtained:
human B7-2 = test: Cell surface expression of B7-2 in transfected COS-7 cells by flow cytometry; type: cell-based
Procedure: A T-175 flask was seeded at 75% confluency with COS-7 cells (ATCC accession No. CRL 1651). The plasmid pcB7-1 was introduced into cells by standard calcium phosphate transfection. Following a 4 hour transfection, the cells were trypsinized and seeded in 12-well dishes at 80% confluency. The cells were allowed to adhere to the plastic for 1 hour and were then washed with phosphate-buffered saline (PBS). OptiMEM™ (GIBCO-BRL, Gaithersburg, Md.) medium was added along with 15 μg/mL of Lipofectin™ (GIBCO-BRL, Gaithersburg, Md.) and oligonucleotide at the indicated concentrations. After four additional hours, the cells were washed with phosphate buffered saline (PBS) and incubated with fresh oligonucleotide at the same concentration in DMEM (Dulbecco et al., Virol., 1959, 8, 396; Smith et al., Virol., 1960, 12, 185) with 10% fetal calf sera (FCS).
In order to monitor the effects of oligonucleotides on cell surface expression of B7-1, treated COS-7 cells were harvested by brief trypsinization 24-48 hours after oligonucleotide treatment. The cells were washed with PBS, then resuspended in 100 μL of staining buffer (PBS, 0.2% BSA, 0.1% azide) with 5 μL conjugated anti-B7-1-antibody (i.e., anti-hCD80-FITC, Ancell, Bayport, Minn.; FITC: fluorescein isothiocyanate). The cells were stained for 30 minutes at 4° C., washed with PBS, resuspended in 300 μL containing 0.5% paraformaldehyde. Cells were harvested and the fluorescence profiles were determined using a flow cytometer.
In an initial screen, the ability of hB7-2 oligonucleotides to inhibit B7-2 expression was evaluated by measuring the cell surface expression of B7-2 in transfected COS-7 cells by flow cytometry. The methods used were similar to those given in Example 2, with the exceptions that (1) COS-7 cells were transfected with the plasmids pbcB7-2 or BBG-58, a human ICAM-1 (CD54) expression vector (R&D Systems, Minneapolis, Minn.) introduced into cells by standard calcium phosphate transfection, (2) the oligonucleotides used were those described in Table 2, and (3) a conjugated anti-B7-2 antibody (i.e., anti-hCD86-FITC or anti-CD86-PE, PharMingen, San Diego, Calif.; PE: phycoerythrin) was used during flow cytometry.
B7 antisense oligonucleotides were tested for their effect on cell surface expression of both B7-1 and B7-2. Cell surface expression was measured as described in Example 1. Experiments were done for both human B7 and mouse B7.
The oligonucleotides were screened as described in Example 2 except that the concentration of oligonucleotide was varied as shown in Table 19.

human B7.2 mRNA = test: Human B7.2 mRNA levels in THP-1 cells by quantitative real-time PCR (Example 27); type: cell-based; design: concentration or dose not given beside the values
Description: In accordance with the present invention, an additional series of antisense compounds were designed to target different regions of the human B7.2 RNA, using published sequences (GenBank accession number U04343.1, incorporated herein as SEQ ID NO: 295, GenBank accession number BC040261.1, incorporated herein as SEQ ID NO: 296 and GenBank accession number NT—005543.12, a portion of which is incorporated herein as SEQ ID NO: 297). “Target site” indicates the first (5′-most) nucleotide number on the particular target sequence to which the compound binds. All compounds in Table 25 are chimeric oligonucleotides (“gapmers”) 20 nucleotides in length, composed of a central “gap” region consisting of ten 2′-deoxynucleotides, which is flanked on both sides (5′ and 3′ directions) by five-nucleotide “wings”. The wings are composed of 2′-methoxyethyl (2′-MOE)nucleotides. The internucleoside (backbone) linkages are phosphorothioate (P═S) throughout the oligonucleotide. All cytidine residues are 5-methylcytidines. The compounds were analyzed for their effect on human B7.2 mRNA levels in THP-1 cells by quantitative real-time PCR as described in other examples herein. Data are averages from three experiments. If present, “N.D.” indicates “no data”.

| Substance | % INHIB (inhibition of human B7.2 mRNA levels) (human B7.2 mRNA) | also measured |
| --- | --- | --- |
| 5′-GCG-AGC-TCC-CCG-TAC (antisense GCGAGCTCCCCGTAC; listed as DNA, chemistry not given here) [ISIS 10996, 15-mer derived from ISIS 10373, 0015-0029; 5′-UTR] |  | B7-2 expression relative to untreated cells (human B7-2; 200 nM, protein expression assay, ISIS 10996 and 2′-O-methyl derivatives): about 50%; activity in the B7-2 protein expression assay (human B7-2; ISIS 10373 deletion derivatives, FIG. 4): as (or more) active |
| 323663 (antisense eG*eT*eT*e[5mC]*eT*dT*dA*dG*d[5mC]*dA*dA*dA*dA*d[5mC]*dA*e[5mC]*eT*e[5mC]*eA*eT) [compound 323663] | 23% |  |
| 323664 (antisense eA*eT*eT*e[5mC]*eT*dT*dG*dG*dT*dT*d[5mC]*dT*dT*dA*dG*e[5mC]*eA*eA*eA*eA) [compound 323664] | 35% |  |
| 323665 (antisense eG*eA*eT*eA*eG*dT*dT*dG*dA*dA*dT*dT*d[5mC]*dT*dT*eG*eG*eT*eT*e[5mC]) [compound 323665] | 43% |  |
| 323666 (antisense eA*e[5mC]*e[5mC]*eA*eT*d[5mC]*dA*dT*dA*d[5mC]*dT*d[5mC]*dG*dA*dT*eA*eG*eT*eT*eG) [compound 323666] | 71% |  |
| 323667 (antisense eA*eT*e[5mC]*eT*eT*dG*dA*dG*dA*dT*dT*dT*d[5mC]*dT*dG*e[5mC]*eA*eT*eA*eA) [compound 323667] | 52% |  |
| 323668 (antisense eA*e[5mC]*eA*eT*eT*dA*dT*d[5mC]*dT*dT*dG*dA*dG*dA*dT*eT*eT*e[5mC]*eT*eG) [compound 323668] | 39% |  |
| 323669 (antisense e[5mC]*eG*eT*eA*e[5mC]*dA*dG*dT*dT*d[5mC]*dT*dG*dT*dG*dA*e[5mC]*eA*eT*eT*eA) [compound 323669] | 68% |  |
| 323670 (antisense eA*eG*eA*e[5mC]*eA*dA*dG*d[5mC]*dT*dG*dA*dT*dG*dG*dA*eA*eA*e[5mC]*eG*eT) [compound 323670] | 19% |  |
| 323671 (antisense eG*eA*eA*eA*e[5mC]*dA*dG*dA*d[5mC]*dA*dA*dG*d[5mC]*dT*dG*eA*eT*eG*eG*eA) [compound 323671] | 26% |  |
| 323672 (antisense eG*eG*eA*eA*eT*dG*dA*dA*dA*d[5mC]*dA*dG*dA*d[5mC]*dA*eA*eG*e[5mC]*eT*eG) [compound 323672] | 33% |  |
| 323673 (antisense e[5mC]*eA*eT*e[5mC]*eA*dG*dG*dG*dA*dA*dT*dG*dA*dA*dA*e[5mC]*eA*eG*eA*e[5mC]) [compound 323673] | 38% |  |
| 323674 (antisense e[5mC]*eG*eT*eA*eA*d[5mC]*dA*dT*d[5mC]*dA*dG*dG*dG*dA*dA*eT*eG*eA*eA*eA) [compound 323674] | 47% |  |
| 323675 (antisense eA*eG*e[5mC]*eT*e[5mC]*dT*dA*dT*dA*dG*dA*dG*dA*dA*dA*eG*eG*eT*eG*eA) [compound 323675] | 77% |  |
| 323676 (antisense e[5mC]*e[5mC]*eT*e[5mC]*eA*dA*dG*d[5mC]*dT*d[5mC]*dT*dA*dT*dA*dG*eA*eG*eA*eA*eA) [compound 323676] | 24% |  |
| 323677 (antisense eG*eG*eA*eG*eG*d[5mC]*dT*dG*dA*dG*dG*dG*dT*d[5mC]*d[5mC]*eT*e[5mC]*eA*eA*eG) [compound 323677] | 55% |  |
| 323678 (antisense eA*eG*eT*eA*e[5mC]*dA*dG*d[5mC]*dT*dG*dT*dA*dA*dT*d[5mC]*e[5mC]*eA*eA*eG*eG) [compound 323678] | 23% |  |

| Substance | % INHIB (inhibition of human B7.2 mRNA levels) (human B7.2 mRNA) | also measured |
| --- | --- | --- |
| 323679 (antisense eT*eT*eG*eG*eA*dA*dG*dT*dA*d[5mC]*dA*dG*d[5mC]*dT*dG*eT*eA*eA*eT*e[5mC]) [compound 323679] | 60% |  |
| 323680 (antisense eA*eT*eA*eA*eT*dA*dA*d[5mC]*dT*dG*dT*dT*dG*dG*dA*eA*eG*eT*eA*e[5mC]) [compound 323680] | 51% |  |
| 323681 (antisense e[5mC]*eA*eT*e[5mC]*eA*d[5mC]*dA*d[5mC]*dA*dT*dA*dT*dA*dA*dT*eA*eA*e[5mC]*eT*eG) [compound 323681] | 8% |  |
| 323682 (antisense eT*e[5mC]*e[5mC]*eA*eT*dT*dT*d[5mC]*d[5mC]*dA*dT*dA*dG*dA*dA*eT*eT*eA*eG*eA) [compound 323682] | 35% |  |
| 323683 (antisense eT*e[5mC]*eT*eT*e[5mC]*dT*dT*d[5mC]*d[5mC]*dA*dT*dT*dT*d[5mC]*d[5mC]*eA*eT*eA*eG*eA) [compound 323683] | 16% |  |
| 323684 (antisense eA*eT*eT*eT*eA*dT*dA*dA*dG*dA*dG*dT*dT*dG*d[5mC]*eG*eA*eG*eG*e[5mC]) [compound 323684] | 32% |  |
| 323685 (antisense eT*eT*eG*eG*eT*dT*d[5mC]*d[5mC]*dA*d[5mC]*dA*dT*dT*dT*dA*eT*eA*eA*eG*eA) [compound 323685] | 18% |  |
| 323686 (antisense e[5mC]*eT*e[5mC]*eT*e[5mC]*d[5mC]*dA*dT*dT*dG*dT*dG*dT*dT*dG*eG*eT*eT*e[5mC]*e[5mC]) [compound 323686] | 53% |  |
| 323687 (antisense e[5mC]*eT*eT*e[5mC]*e[5mC]*d[5mC]*dT*d[5mC]*dT*d[5mC]*d[5mC]*dA*dT*dT*dG*eT*eG*eT*eT*eG) [compound 323687] | 19% |  |
| 323688 (antisense eT*eG*eG*eT*e[5mC]*dT*dG*dT*dT*d[5mC]*dA*d[5mC]*dT*d[5mC]*dT*e[5mC]*eT*eT*e[5mC]*e[5mC]) [compound 323688] | 58% |  |
| 323689 (antisense eT*eT*e[5mC]*eA*eT*d[5mC]*dA*dG*dA*dT*d[5mC]*dT*dT*dT*d[5mC]*eA*eG*eG*eT*eA) [compound 323689] | 43% |  |
| 323690 (antisense eA*eT*e[5mC]*eA*e[5mC]*dT*dT*dT*dT*dG*dT*d[5mC]*dG*d[5mC]*dA*eT*eG*eA*eA*eG) [compound 323690] | 82% |  |
| 323691 (antisense eG*e[5mC]*eT*eT*eT*dA*d[5mC]*dT*d[5mC]*dT*dT*dT*dA*dA*dT*eT*eA*eA*eA*eA) [compound 323691] | 40% |  |
| 323692 (antisense eG*eT*eA*eT*eG*dG*dG*d[5mC]*dT*dT*dT*dA*d[5mC]*dT*d[5mC]*eT*eT*eT*eA*eA) [compound 323692] | 57% |  |
| 323693 (antisense eA*eT*eA*e[5mC]*eT*dT*dG*dT*dA*dT*dG*dG*dG*d[5mC]*dT*eT*eT*eA*e[5mC]*eT) [compound 323693] | 62% |  |
| 323694 (antisense eA*eA*eT*eG*eA*dA*dT*dA*d[5mC]*dT*dT*dG*dT*dA*dT*eG*eG*eG*e[5mC]*eT) [compound 323694] | 71% |  |
| ISIS 10715: scrambled control of # 9133; SEQ ID NO: 76 (antisense dG*dA*dT*dT*dT*dA*dA*dC*dA*dT*dT*dT*dG*dG*dC*dG*dC*dC*dC*dA) [reference compound] |  | inhibitory activity on B7-2 cell surface expression (human B7-2; 200 nM, FIG. 3): no inhibitory activity |
